Assay [1] concerns memory-deficient model rats. Briefly: Y-maze test in ibotenic acid-induced memory-deficient model rats. Type of assay: in vivo, rat. The source says: Ibotenic acid is a neurotoxin present in mushrooms and is known to cause powerful damage to neurons when directly injected into the brain of mice or rats. In particular, because senile plaques and neuronal cell death appear in the entorhinal cortex and hippocampus in early Alzheimer's disease patients (Ueki A et al. J Neurol Sci, 1994), memory-deficient model rats were generated by injecting ibotenic acid (IBO) into the entorhinal cortex. The surgical protocol followed Heo H et al.'s method (J Ethnopharmacol, 2009) with some modifications. In the model animals, the injection of ibotenic acid induces cell death not only in the entorhinal cortex but also in the CA and DG regions of the hippocampus and impairs hippocampus-related learning and memory abilities.
The 6-week-old rats were anesthetized with equithesin (350 mM pentobarbital sodium, 250 mM chloral hydrate, 85 mM MgSO4 and 40% propylene glycol in 10% ethanol, 2 mL/kg). To induce cell death in the dentate gyrus and hippocampus in addition to the entorhinal cortex, ibotenic acid (1.5 μL per animal, 1 mg/mL) was injected into the entorhinal cortex as follows. The rat was placed in a stereotaxic device (Stoelting Co., Wood Dale, Ill., USA) with the incisor bar 3.4 mm below the interaural line. The needle was positioned 10° right to the midsaggital plane. Then, ibotenic acid was injected at 3 locations into the entorhinal cortex and medial entorhinal cortex at a rate of 0.35 μL/min (first, AP: 8.4 mm, ML: 4.8 mm, DV: 4.6-4.8 mm; second, AP: 8.4 mm, ML: 4.8 mm, DV: 2.6-2.8 mm; third, AP: 8.8 mm, ML: 3.65 mm, DV: 4.8 mm). […]
The maze was made of black-colored acryl and was positioned at equal angles. […] Arm entry was recorded when the hind paws were completely placed in the arm. Consecutive entry into 3 arms in an alternative order was defined as successive entries on overlapping triplet sets, and alternation percentage was calculated as the ratio of actual to possible alternations (defined as the total number of arm entries minus 2), multiplied by 100. […]

In assay [2] the test system is hippocampal neural precursor cells (NPCs). Briefly: Ki67 immunostaining of cultured embryonic neural precursor cells (proliferation). Type of assay: cell-based, rat. From the text:
Pregnant Sprague-Dawley rats purchased from Orient Animal Breeding Center (a branch of Charles River Laboratories, Gyeonggi-do, Korea) were sacrificed by exposing to CO2 inhalation. Hippocampal neural precursor cells (NPCs) were isolated from the brain of the E16 rat embryo according to the method of Shin M H et al. (Exp Mol Med, 2002) with slight modifications.
Briefly, hippocampi were aseptically dissected from the embryonic forebrain, mechanically dissociated in Ca^2+/Mg^2+-free Hank's balanced salt solution (HBSS) and then plated at 7×10^5 cells/cm^2 on 60-mm dishes pre-coated with 15 μg/mL poly-L-ornithine and 1 μg/mL fibronectin. The neural precursor cells were cultured in serum-free N2 media supplemented with 10 ng/mL bFGF in 5% CO2 for 3 days and then detached using 0.05% trypsin-ethylenediaminetetraacetic acid (EDTA). The neural precursor cells were plated on 12-mm cover glasses (Bellco Co., Vineland, N.J., USA) and cultured one more day in N2 media supplemented with 10 ng/mL bFGF in 5% CO2 (primary culturing).
Following the primary culturing in (1), immunohistochemical analysis was conducted using Ki67 antibodies in order to confirm the effect of soyasaponin I on proliferation of the embryonic neural precursor cells. […]

Turning to `C[C@@H]1O[C@@H](O[C@H]2[C@H](O[C@H]3[C@H](O[C@H]4CC[C@@]5(C)[C@@H](CC[C@]6(C)[C@@H]5CC=C5[C@@H]7CC(C)(C)C[C@@H](O)[C@]7(C)CC[C@]56C)[C@@]4(C)CO)O[C@H](C(=O)O)[C@@H](O)[C@@H]3O)O[C@H](CO)[C@H](O)[C@@H]2O)[C@H](O)[C@H](O)[C@H]1O` [soyasaponin I], in assay [1] (10 mg/kg oral, tests 2 weeks after administration (Experimental Example 2)), the “Y-maze number of total entries” value is “not significantly different”. In addition, the “Y-maze spontaneous alterations (decreased memory of IBO group)” value in assay [1] (Experimental Example 1, tests immediately after administration, group 1 (Soya-I)) is reported as “improved”. For the same compound, the “Y-maze spontaneous alterations, increase compared with the non-soyasaponin I-administered group (IBO)” value in assay [1] (soyasaponin I 10 mg/kg oral, tests 2 weeks after administration (Experimental Example 2)) is listed as 78.57%. In addition, in assay [2] (2 μM soyasaponin I), the “Increase in the number of proliferating (Ki67) cells compared with the normal group (Vehicle)” value is given as 2.5 fold. The “Proliferation of the neural precursor cells (Ki67), concentration dependence” value in assay [2] (0.5, 1, 2 μM) is reported as “increased rapidly”.

These data come from US20150307841A1, “Composition for Promoting Differentiation and Proliferation of Neural Stem Cell and Neural Precursor Cell” (priority 2014, published 2015).
